Experimental data published in patent US6559140B2 (Abbott Laboratories, priority 2000, dated 2003).

Target: H3 receptor (Rattus norvegicus, UniProt Q9QYN8)
Assay: H3 receptor binding, (3H)-N-α-methylhistamine displacement in rat cortical membranes
Details: male Sprague-Dawley rat brain cortical membranes, 30 minutes at 25° C., Cheng-Prusoff, geometric mean values of 2-10 separate experiments
Method: Briefly, male Sprague-Dawley rat brain cortices were homogenized (1 g tissue/10 mL buffer) in 50 mM Tris-HCl/5 mM EDTA containing protease inhibitor cocktail (Calbiochem) using a polytron set at 20,500 rpm. Homogenates were centrifuged for 20 minutes at 40,000×g. The supernatant was decanted, and pellets were weighed. The pellet was resuspended by polytron homogenization in 40 mL 50 mM Tris-HCl/5 mM EDTA with protease inhibitors and centrifuged for 20 minutes at 40,000×g. […] Test compounds were added to the incubation mixtures prior to initiating the incubation assay by addition of the membranes. Thioperamide (3 μM) was used to determine nonspecific binding. Binding incubations were conducted for 30 minutes at 25° C. and terminated by addition of 2 mL of ice cold 50 mM Tris-HCl (H 7.7) and filtration through 0.3% polyethylenimine-soaked Unifilter plates (Packard). These filters were washed 4 additional times with 2 mL of ice-cold 50 mM Tris-HCl and dried for 1 hour. Radioactivity was determined using liquid scintillation counting techniques. Results were analyzed by Hill transformation and Ki values were determined using the Cheng-Prusoff equation.

H3 receptor, sequence (Q9QYN8 1-397 isoform Q9QYN8-3): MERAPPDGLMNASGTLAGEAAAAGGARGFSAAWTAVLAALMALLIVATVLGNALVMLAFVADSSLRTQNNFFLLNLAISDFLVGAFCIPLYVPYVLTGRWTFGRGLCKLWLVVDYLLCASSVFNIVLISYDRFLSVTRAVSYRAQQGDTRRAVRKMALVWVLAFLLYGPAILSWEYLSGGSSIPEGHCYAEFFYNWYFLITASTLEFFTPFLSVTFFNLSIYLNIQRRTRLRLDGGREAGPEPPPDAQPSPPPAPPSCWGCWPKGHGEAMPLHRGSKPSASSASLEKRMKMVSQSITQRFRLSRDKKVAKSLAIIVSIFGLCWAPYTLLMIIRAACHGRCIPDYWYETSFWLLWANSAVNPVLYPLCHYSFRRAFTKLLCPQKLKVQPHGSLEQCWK

Row | SMILES | Ki [nM]
1 | CCCCCC(=O)c1ccc(OCCCN2CCN(C(=O)[C@H](N)CO)CC2)cc1 [Example 52, 1-(4-(3-(4-((2R)-2-amino-3-hydroxypropanoyl)-1-piperazinyl)propoxy)phenyl)-1-hexanone] | 8.39
2 | C[C@H](CCOc1ccc(C(=O)C2CC2)cc1)N1CCN(C(=O)[C@@H](C)NC(=O)OC(C)(C)C)CC1 [Example 61, Tert-butyl (1R)-2-(4-((1R)-3-(4-(cyclopropylcarbonyl)phenoxy)-1-methylpropyl)-1-piperazinyl)-1-methyl-2-oxoethylcarbamate] | 0.74
3 | C[C@H](CCOc1ccc(C(=O)C2CC2)cc1)N1CCN(C(=O)[C@@H](C)N)CC1 [Example 62, (4-(((3R)-3-(4-((2R)-2-aminopropanoyl)-1-piperazinyl)butyl)oxy)phenyl)(cyclopropyl)methanone] | 1.46
4 | C[C@@H](NC(=O)OC(C)(C)C)C(=O)N1CCN(CCCOc2ccc(C(=O)C3CC3)cc2)CC1 [Example 64, Tert-butyl (1R)-2-(4-(3-(4-(cyclopropylcarbonyl)phenoxy)propyl)-1-piperazinyl)-1-methyl-2-oxoethylcarbamate] | 2.07
5 | N[C@H](COCc1ccccc1)C(=O)N1CCN(CCCOc2ccc(C(=O)C3CC3)cc2)CC1 [Example 75, (4-(3-(4-((2R)-2-amino-3-(benzyloxy)propanoyl)-1-piperazinyl)propoxy)phenyl)(cyclopropyl)methanone] | 4.67
6 | O=C(c1ccc(OCCCN2CCN(C(=O)C[C@H]3CCCN3)CC2)cc1)C1CC1 [Example 86, Cyclopropyl(4-(3-(4-((2R)-pyrrolidinylacetyl)-1-piperazinyl)propoxy)phenyl)methanone] | 4.64
7 | C[C@@H](N)C(=O)N1CCN(CCCOc2ccc(-c3ccc(C#N)cc3)cc2)CC1 [Example 100] | 12.4
8 | O=C(c1ccc(OCCCN2CCCN(C(=O)C[C@@H]3CCCN3)CC2)cc1)C1CC1 [Example 124, Cyclopropyl(4-(3-(4-((2S)-pyrrolidinylacetyl)-1,4-diazepan-1-yl)propoxy)phenyl)methanone] | 4.03
9 | C[C@@H](NC(=O)c1ccco1)C(=O)N1CCN(CCCOc2ccc(C(=O)C3CC3)cc2)CC1 [Example 126, N-((1R)-2-(4-(3-(4-(cyclopropylcarbonyl)phenoxy)propyl)-1-piperazinyl)-1-methyl-2-oxoethyl)-2-furamide] | 0.742
10 | C[C@@H](NC(=O)[C@H]1CCCN1)C(=O)N1CCN(CCCOc2ccc(C(=O)C3CC3)cc2)CC1 [Example 129, (2R)-N-((1R)-2-(4-(3-(4-(cyclopropylcarbonyl)phenoxy)propyl)-1-piperazinyl)-1-methyl-2-oxoethyl)-2-pyrrolidinecarboxamide] | 0.425

The next lines start with the values.

Row | Ki [nM] | SMILES
11 | 19.6 | C[C@H](N)C(=O)N1CCN(CCCOc2ccc(C(=O)C3CC3)cc2)CC1 [Example 1, (4-(3-(4-((2S)-2-aminopropanoyl)-1-piperazinyl)propoxy)phenyl)(cyclopropyl)methanone]
12 | 12.1 | CC(C)(C)[C@@H](N)C(=O)N1CCN(CCCOc2ccc(C(=O)C3CC3)cc2)CC1 [Example 66, (4-(3-(4-((2R)-2-amino-3,3-dimethylbutanoyl)-1-piperazinyl)propoxy)phenyl)(cyclopropyl)methanone]
13 | 1.24 | CC[C@@H](N)C(=O)N1CCN(CCCOc2ccc(C(=O)C3CC3)cc2)CC1 [Example 69, (4-(3-(4-((2R)-2-aminobutanoyl)-1-piperazinyl)propoxy)phenyl)(cyclopropyl)methanone]
14 | 6.56 | Cn1cnc(C[C@@H](N)C(=O)N2CCN(CCCOc3ccc(C(=O)C4CC4)cc3)CC2)c1 [Example 88, (4-(3-(4-((2R)-2-amino-3-(1-methyl-1H-imidazol-4-yl)propanoyl)-1-piperazinyl)propoxy)phenyl)(cyclopropyl)methanone]
15 | 1.07 | C[C@H](N)C(=O)N1CCCN(CCCOc2ccc(C(=O)C3CC3)cc2)CC1 [Example 117, (4-(3-(4-((2S)-2-aminopropanoyl)-1,4-diazepan-1-yl)propoxy)phenyl)(cyclopropyl)methanone]
